Results published in paper PMC8306930, “A Comparative Analysis of the In Vitro Anticancer Activity of Iridium(III) {η^5-C5Me4R} Complexes with Variable R Groups” (International Journal of Molecular Sciences, 2021).

Columns and labels:
[1] = tested on: SW620 human colorectal adenocarcinoma cells; test: CV viability assay, SW620; format: cell-based; details: SW620, 72 h exposure, mean ± SD
Source text: (§1) The rat astrocytoma C6 cell line and murine melanoma B16 cell line were kindly gifted by Dr. L. Harhaji–Trajkovic, Institute for Biological Research “Sinisa Stankovic”—National Institute of Republic of Serbia (IBISS), and from Dr. Sinisa Radulovic (Institute for Oncology and Radiology of Serbia), respectively. Human colorectal (SW620 and HCT116), breast (MCF-7), and ovarian (A2780) cancer cell lines and non-malignant fibroblast cell line (MRC5) were purchased from the American Type Culture Collection (ATCC, Manassas, Virginia, USA). […] For viability assays, cells were seeded in listed densities/well: B16 and C6: 3 × 10^3; SW620: 9 × 10^3; A2780 and HCT116: 5 × 10^3; MCF-7: 8 × 10^3 and MRC5: 7 × 10^3. For flow cytometry, A2780 cells were seeded at 2 × 10^5 density/well in 6-well plates. Peritoneal macrophages were collected from the peritoneal cavity of C57BL/6 mice from the animal facility of IBISS by cavity lavage with ice-cold PBS. […] Macrophages were counted, seeded at 2 × 10^5 cells/well in 96-well plates for viability assay, and then left for 2 h to adhere. Before treatment, non-adherent cells were removed. The handling of animals and protocol for obtaining macrophages is in the agreement with the rules of the European Union and approved by the Institutional Animal Care and Use Committee at IBISS (No. 02-09/16).
(§2) Stock solutions of 1b, 1c, 1d, and 1e were prepared in ethanol at concentration of 20 mM and kept at −20 °C, while 10 mM stock solution of cisplatin was prepared in DMF just before the usage. Desired final concentrations were obtained by dilution in culture medium.
(§3) Cells were treated with various concentrations (up to 50 or 100 µM) of the above-mentioned complexes for 72 h. For the detection of mitochondrial respiration, cells were cultivated in the presence of MTT staining solution (0.5 mg/mL) for approximately 1 h at 37 °C. The dye was then discarded, and the formed formazan crystals (purple) were dissolved in DMSO. For an evaluation of viable attached cells, cells were fixed with 4% PFA for 10 min at room temperature, and subsequently stained for 15 min with 0.02% CV solution. […] The absorbance was measured with an automated microplate reader at 540 nm, with a reference wavelength of 670 nm. The IC50 values were calculated using a four-parameter logistic function and presented as mean ± SD from three independent experiments.

[2] = tested on: MCF-7 human breast cancer cells; test: CV viability assay, MCF-7; format: cell-based; details: MCF-7, 72 h exposure, mean ± SD
Source text: as §1, §2, §3

[3] = tested on: B16 mouse melanoma cells; test: MTT viability assay, B16; format: cell-based; details: B16, 72 h exposure, mean ± SD
Source text: as §1, §2, §3

[4] = tested on: MRC5 human fibroblast cells; test: CV viability assay, MRC5; format: cell-based; details: MRC5, 72 h exposure, mean ± SD
Source text: as §1, §2, §3

[5] = Octanol/water partition coefficient, shake-flask method with UV-Vis; details: 21 °C, mean ± standard deviation
Experimental: (a) Octanol/water partition coefficients (Log Pow). Partition coefficients (Pow; IUPAC: KD partition constant), defined as Pow = corg/caq, where corg and caq are molar concentrations of the selected compound in the organic and aqueous phase, respectively, were determined by the shake-flask method and UV-Vis measurements. Deionized water and 1-octanol were vigorously stirred for 24 h, to enable saturation of both phases, then separated by centrifugation. A stock solution of the selected iridium compound (ca. 2 mg) was prepared by first adding acetone (50 μL, to help solubilization), followed by water-saturated octanol (2.5 mL). The solution was diluted with water-saturated octanol (ca. 1:3 v/v ratio, cIr ≈ 10^−4 M, so that 1.5 ≤ A ≤ 2.0 at λmax) and its UV-Vis spectrum was recorded (A^0org). An aliquot of the solution (Vorg = 1.2 mL) was transferred into a test tube and octanol-saturated water (Vorg = Vaq = 1.2 mL) was added. The mixture was vigorously stirred for 30 min at 21 °C then centrifuged (5000 rpm, 5 min). The UV-Vis spectrum of the organic phase was recorded (A^forg) and the partition coefficient was calculated as Pow = A^forg/(A^0org − A^forg) where A^0org and A^forg are the absorbance in the organic phase before and after partition with the aqueous phase, respectively. The wavelength of the maximum absorption of each compound (ca. 300 nm) was used for UV-Vis quantitation.

[6] = tested on: C6 rat glioma cells; test: MTT viability assay, C6; format: cell-based; details: C6, 72 h exposure, mean ± SD
Source text: as §1, §2, §3

[7] = tested on: MCF-7 human breast cancer cells; test: MTT viability assay, MCF-7; format: cell-based; details: MCF-7, 72 h exposure, mean ± SD
Source text: as §1, §2, §3

[8] = tested on: B16 mouse melanoma cells; test: CV (crystal violet) viability assay, B16; format: cell-based; details: B16, 72 h exposure, mean ± SD
Source text: as §1, §2, §3

[9] = tested on: SW620 human colorectal adenocarcinoma cells; test: MTT viability assay, SW620; format: cell-based; details: SW620, 72 h exposure, mean ± SD
Source text: as §1, §2, §3

[10] = tested on: C6 rat glioma cells; test: CV viability assay, C6; format: cell-based; details: C6, 72 h exposure, mean ± SD
Source text: as §1, §2, §3

[11] = tested on: HCT116 human colorectal carcinoma cells; test: MTT viability assay, HCT116; format: cell-based; details: HCT116, 72 h exposure, mean ± SD
Source text: as §1, §2, §3

[12] = Stability in D2O mixtures by 1H NMR; format: physicochemical; details: DMSO-d6/D2O 2:1, 72 h at 37 °C, 1H NMR, dimethyl sulfone standard
Experimental: Complexes were dissolved in acetone-d6/D2O 2:1 (1b,d), DMSO-d6/D2O 2:1 (2a–d and 3), or methanol-d4/D2O 2:1 (1c) ([Ir] ≈ 10^−3 mol L^−1), then dimethyl sulfone (0.05 mL, 0.164 mmol) was added as internal standard. The mixtures were filtered through a celite pad, and the filtrated solutions were analyzed by ^1H NMR spectroscopy.
The solutions were then stored for 72 h at 37 °C, and new NMR analyses were subsequently performed.

[13] = Stability in RPMI-1640 cell culture medium by UV-Vis; format: physicochemical; details: 37 °C, 24 h
[14] = tested on: A2780 human ovarian cancer cells; test: CV viability assay, A2780; format: cell-based; details: A2780, 72 h exposure, mean ± SD
Source text: as §1, §2, §3

[15] = tested on: HCT116 human colorectal carcinoma cells; test: CV viability assay, HCT116; format: cell-based; details: HCT116, 72 h exposure, mean ± SD
Source text: as §1, §2, §3

[16] = tested on: A2780 human ovarian cancer cells; test: MTT viability assay, A2780; format: cell-based; details: A2780, 72 h exposure, mean ± SD
Source text: as §1, §2, §3

[17] = tested on: MRC5 human fibroblast cells; test: MTT viability assay, MRC5; format: cell-based; details: MRC5, 72 h exposure, mean ± SD
Source text: as §1, §2, §3

[18] = tested on: A2780 cells; details: A2780, IC50 doses, 48 h, AnnV/PI
Experimental: (§4) Experiments were carried out in three independent replicates.

[19] = tested on: primary mouse peritoneal cells; test: Viability of primary mouse peritoneal cells (macrophages); format: cell-based
Source text: The rat astrocytoma C6 cell line and murine melanoma B16 cell line were kindly gifted by Dr. L. Harhaji–Trajkovic, Institute for Biological Research “Sinisa Stankovic”—National Institute of Republic of Serbia (IBISS), and from Dr. Sinisa Radulovic (Institute for Oncology and Radiology of Serbia), respectively. Human colorectal (SW620 and HCT116), breast (MCF-7), and ovarian (A2780) cancer cell lines and non-malignant fibroblast cell line (MRC5) were purchased from the American Type Culture Collection (ATCC, Manassas, Virginia, USA). […] For viability assays, cells were seeded in listed densities/well: B16 and C6: 3 × 10^3; SW620: 9 × 10^3; A2780 and HCT116: 5 × 10^3; MCF-7: 8 × 10^3 and MRC5: 7 × 10^3. For flow cytometry, A2780 cells were seeded at 2 × 10^5 density/well in 6-well plates. […] Macrophages were counted, seeded at 2 × 10^5 cells/well in 96-well plates for viability assay, and then left for 2 h to adhere. […]
Cells were treated with various concentrations (up to 50 or 100 µM) of the above-mentioned complexes for 72 h. […] The absorbance was measured with an automated microplate reader at 540 nm, with a reference wavelength of 670 nm. The IC50 values were calculated using a four-parameter logistic function and presented as mean ± SD from three independent experiments.

[20] = tested on: A2780 cells; test: Autophagosomes, acridine orange flow cytometry; format: cell-based, human; details: A2780, IC50 doses, 48 h, AO
Experimental: as §4

[21] = tested on: A2780 cells; test: Senescence, FDG assay of beta galactosidase activity, flow cytometry; format: cell-based, human; details: A2780, IC50 doses, 48 h, in comparison to the control
Experimental: as §4

[22] = tested on: A2780 cells; test: Cell proliferation, CFSE flow cytometry; format: cell-based, human; details: A2780, IC50 doses, 72 h of incubation
Experimental: as §4

[23] = tested on: A2780 cells; test: ROS/RNS, DHR123 flow cytometry; format: cell-based, human; details: A2780, IC50 doses, 48 h, DHR123, with respect to untreated cultures
Experimental: as §4

[24] = tested on: A2780 cells; test: Intracellular nitric oxide, DAF-FM flow cytometry; format: cell-based, human; details: A2780, IC50 doses, 48 h, with respect to untreated cultures
Experimental: as §4

[25] = tested on: A2780 cells; test: Mitochondrial membrane potential, DiOC6(3) flow cytometry; format: cell-based, human; details: A2780, IC50 doses, 24 h, in comparison with untreated cells
Experimental: as §4

SMILES | IC50 [1] [µM] | IC50 [2] [µM] | IC50 [3] [µM] | IC50 [4] [µM] | Log Pow [5] | IC50 [6] [µM] | IC50 [7] [µM] | IC50 [8] [µM] | IC50 [9] [µM] | IC50 [10] [µM] | IC50 [11] [µM] | Fraction of unaltered compound [12] [%] | Stability in RPMI-1640 cell culture medium [13] | IC50 [14] [µM] | IC50 [15] [µM] | IC50 [16] [µM] | IC50 [17] [µM] | further results
CCC[c-]1c(C)c(C)c(C)c1C.[Cl-].[Ir+3].[c-]1ccccc1-c1ccccn1 [Complex 2c, (1-(propyl)-2,3,4,5-tetramethylcyclopentadienyl)(2-phenylpyridine)iridium(III)chloride] | 12.4 ± 1.5 | 17.2 ± 0.1 | 6.7 ± 0.6 | 2.7 ± 0.1 | 1.5 ± 0.2 | 4 ± 0.3 | 12 ± 1.3 | 8 ± 2 | 10.4 ± 0.4 | 5.9 ± 0.5 | 8 ± 0.6 | 98 | did not change | 7.2 ± 0.8 | 13 ± 1.1 | 7.3 ± 0.6 | 3.7 ± 0.2 | 
Cc1c(C)c(C)[c-](-c2ccc(F)cc2)c1C.[Cl-].[Ir+3].[c-]1ccccc1-c1ccccn1 [Complex 2d, (1-(4-fluorobenzene)-2,3,4,5-tetramethylcyclopentadienyl)(2-phenylpyridine)iridium(III)chloride] | 2 ± 0.2 | 6.8 ± 0.7 | 1.2 ± 0.2 | 2.1 ± 0.6 | 1.3 ± 0.2 | 2 ± 0.01 | 2.5 ± 0.2 | 1.7 ± 0.4 | 2 ± 0.1 | 2.1 ± 0.1 | 1.3 ± 0.3 | 97 | did not change | 1.8 ± 0.1 | 5.3 ± 1.3 | 1.3 ± 0.1 | 2.4 ± 0.3 | Induction of apoptotic cell death [18]: modest induction; Effect on viability of primary mouse peritoneal cells [19]: did not affect viability; High percentage of autophagosomes [20]: not recognized; Increase of beta galactosidase activity [21]: 31%; Effect on cell proliferation [22]: inhibition of cell proliferation; Increase of intracellular levels of H2O2, HOCl and ONOO− (in total) [23]: 36.3%; Increase of intracellular level of NO [24]: 38%; Mitochondrial membrane hyperpolarization [25]: 48.6%
